Results on six compounds are retold here after patent US6964949B2, “Pharmaceutical compositions for promoting the growth of gram-positive bacilli and increasing the acidity in the vagina and the use thereof” (Shanghai Jiao Da Onlly Co., Ltd., priority 2000, dated 2005).

Common to all, as to format: cell-based
What all share (conditions): 1.0% yeast extract, pH 6.2, candle jar, 37° C.

The test system of one assay is Gram-positive cocci. Nature of the assay: Experiment Example 2: comparison of saccharides, specimen culture, Gram smear. The source says:
(§1) • (1)The preparation of the compositions: Different saccharides were used respectively to prepare the following compositions according to the methods mentioned above: glucose, fructose, galactose, mannose, maltose, sucrose, lactose, lactulose, mycose, cellobiose, melibiose, melitose, malto-oligosaccharide, isomaltooligosaccharide and fructooligosaccharide, dextrin, starch, and glycogen: • A. 5% glucose, 1.0% yeast extract, 1.6% xanthan gum, pH adjusted to 6.2; • B. 5% fructose, 1.0% yeast extract, 1.6% xanthan gum, pH adjusted to 6.2; • C. 5% galactose, 1.0% yeast extract, 1.6% xanthan gum, pH adjusted to 6.2; • D. 5% mannose, 1.0% yeast extract, 1.6% xanthan gum, pH adjusted to 6.2; • E. 10.0% maltose, 1.0% yeast extract, 1.6% xanthan gum, pH adjusted to 6.2; • F. 10.0% sucrose, 1.0% yeast extract, 1.6% xanthan gum, pH adjusted to 6.2; • G. 10.0% lactose, 1.0% yeast extract, 1.6% xanthan gum, pH adjusted to 6.2; • H. 10.0% lactulose, 1.0% yeast extract, 1.6% xanthan gum, pH adjusted to 6.2; • I. 10.0% cellobiose, 1.0% yeast extract, 1.6% xanthan gum, pH adjusted to 6.2; • J. 10.0% mycose, 1.0% yeast extract, 1.6% xanthan gum, pH adjusted to 6.2; • K. 10.0% melibiose, 1.0% yeast extract, 1.6% xanthan gum, pH adjusted to 6.2; • L. 10.0% melitose, 1.0% yeast extract, 1.6% xanthan gum, pH adjusted to 6.2; • M. 10.0% maltooligosaccharide, 1.0% yeast extract, 1.6% xanthan gum, pH adjusted to 6.2; • N. 10.0% isomaltooligosaccharide, 1.0% yeast extract, 1.6% xanthan gum, pH adjusted to 6.2; • O. 10.0% fructooligosaccharide, 1.0% yeast extract, 1.6% xanthan gum, pH adjusted to 6.2; • P. 10.0% dextrin, 1.0% yeast extract, 0.5% xanthan gum, pH adjusted to 6.2; • Q. 10.0% starch, 1.0% yeast extract, pH adjusted to 6.2; • R. 10.0% glycogen, 1.0% yeast extract, 1.6% xanthan gum, pH adjusted to 6.2. • (2)The preparation of the test tubes: The compositions prepared above were filled into test tubes, with each tube containing 5 ml, sterilized, and kept until use for experiment. • (3) Specimen suspension: Vaginal secretion was taken from one of the patients suffering from typical bacterial vagmosis with a cotton swab, then the swab was washed in 2 ml sterilized Trypcase-soy Broth immediately, and thus the specimen suspension was ready. […] Then the tubes were placed in a candle jar and cultivated at 37° C. After 24 hours and 48 hours' culture, culture samples were taken respectively from each of the tubes, then the Gram smears of the samples were observed and the pH values of culture samples were tested. […] Meanwhile the pH values in most of the composition tubes decreased to different levels. […] And maltose and sucrose exert better effect in promoting the growth of Gram-positive bacilli and the production of acids than that of the other kinds of oligosaccharides.

A further assay deals with Gram-positive bacilli. The assay is described as above.
From the text: as §1

Another assay concerns Gram-negative cocci. Described as above.
From the text: as §1

In another assay the test system is Gram-negative bacilli. The description is as above.
From the text: as §1

In assay [1] the test system is vaginal secretion specimen of a patient suffering from typical bacterial vaginosis. The experiment in a line: Experiment Example 2: pH of culture samples (production of acids).
From the text: as §1

[2] abbreviates: 10.0% saccharide, 1.6% xanthan gum (dextrin 0.5%, starch none).
Where [3] appears, read: 5% saccharide, 1.6% xanthan gum.

For glycogen, in the assay on Gram-positive cocci (setting [2]), the “Bacteria G + c (Gram-positive cocci), 24 hours-culture” value (from here on “Bacteria G + c … 24 hours-culture”) is reported as “G + c, + (1-9 bacteria per field of vision under oil-immersion lens)” and the “Bacteria G + c (Gram-positive cocci), 48 hours-culture” value (from here on “Bacteria G + c … 48 hours-culture”) is on record as “G + c, + (1-9 bacteria per field of vision under oil-immersion lens)”. For the same compound, in the assay with Gram-positive bacilli (setting [2]), the “Bacteria G + b (Gram-positive bacilli), 24 hours-culture” value (from here on “Bacteria G + b … 24 hours-culture”) is listed as “G + b, ++ (About 10-99 bacteria per field of vision under oil-immersion lens)” and the “Bacteria G + b (Gram-positive bacilli), 48 hours-culture” value (“Bacteria G + b … 48 hours-culture” below) is “G + b, +++ (About 100 bacteria or more per field vision under oil-immersion lens, even uncountable)”. Further, in the assay with Gram-negative cocci (setting [2]), the “Bacteria G − c (Gram-negative cocci), 24 hours-culture” value (shortened to “Bacteria G − c … 24 hours-culture”) is recorded as “G − c, − (No or less than one bacterium per field of version under oil-immersion lens)” and the “Bacteria G − c (Gram-negative cocci), 48 hours-culture” value (shortened to “Bacteria G − c … 48 hours-culture”) is on record as “G − c, − (No or less than one bacterium per field of version under oil-immersion lens)”. Moreover, in the assay on Gram-negative bacilli (setting [2]), the “Bacteria G − b (Gram-negative bacilli), 24 hours-culture” value (shortened to “Bacteria G − b … 24 hours-culture”) is given as “G − b, ++ (About 10-99 bacteria per field of vision under oil-immersion lens)” and the “Bacteria G − b (Gram-negative bacilli), 48 hours-culture” value (“Bacteria G − b … 48 hours-culture” for short) is “G − b, ++ (About 10-99 bacteria per field of vision under oil-immersion lens)”. In assay [1] (setting [2]), the “pH, 24 hours-culture” value amounted to 6.4 and the “pH, 48 hours-culture” value stood at 6.2.

Turning to `O=C[C@H](O)[C@@H](O)[C@@H](O)[C@H](O)CO` [Galactose, galactose], in the assay with Gram-positive cocci (setting [3]), the “Bacteria G + c … 24 hours-culture” value is “G + c, ++ (About 10-99 bacteria per field of vision under oil-immersion lens)” and the “Bacteria G + c … 48 hours-culture” value is on record as “G + c, ++ (About 10-99 bacteria per field of vision under oil-immersion lens)”. In addition, in the assay on Gram-positive bacilli (setting [3]), the “Bacteria G + b … 24 hours-culture” value is recorded as “G + b, ++ (About 10-99 bacteria per field of vision under oil-immersion lens)” and the “Bacteria G + b … 48 hours-culture” value was “G + b, + (1-9 bacteria per field of vision under oil-immersion lens)”. Moreover, in the assay on Gram-negative cocci (setting [3]), the “Bacteria G − c … 24 hours-culture” value is listed as “G − c, − (No or less than one bacterium per field of version under oil-immersion lens)” and the “Bacteria G − c … 48 hours-culture” value was “G − c, − (No or less than one bacterium per field of version under oil-immersion lens)”. For the same compound, in the assay with Gram-negative bacilli (setting [3]), the “Bacteria G − b … 24 hours-culture” value was “G − b, − (No or less than one bacterium per field of version under oil-immersion lens)” and the “Bacteria G − b … 48 hours-culture” value is reported as “G − b, + (1-9 bacteria per field of vision under oil-immersion lens)”. In addition, in assay [1] (setting [3]), the “pH, 24 hours-culture” value was determined as 6.7 and the “pH, 48 hours-culture” value amounted to 6.7.

With `O=C(CO)[C@@H](O)[C@H](O)[C@H](O)CO` [Fructose, fructose], in the assay with Gram-positive cocci (setting [3]), the “Bacteria G + c … 24 hours-culture” value was “G + c, + (1-9 bacteria per field of vision under oil-immersion lens)” and the “Bacteria G + c … 48 hours-culture” value is “G + c, + (1-9 bacteria per field of vision under oil-immersion lens)”. Also, in the assay on Gram-positive bacilli (setting [3]), the “Bacteria G + b … 24 hours-culture” value is reported as “G + b, ++ (About 10-99 bacteria per field of vision under oil-immersion lens)” and the “Bacteria G + b … 48 hours-culture” value is on record as “G + b, +++ (About 100 bacteria or more per field vision under oil-immersion lens, even uncountable)”. Also, in the assay on Gram-negative cocci (setting [3]), the “Bacteria G − c … 24 hours-culture” value is given as “G − c, − (No or less than one bacterium per field of version under oil-immersion lens)” and the “Bacteria G − c … 48 hours-culture” value is listed as “G − c, − (No or less than one bacterium per field of version under oil-immersion lens)”. In the assay with Gram-negative bacilli (setting [3]), the “Bacteria G − b … 24 hours-culture” value is on record as “G − b, + (1-9 bacteria per field of vision under oil-immersion lens)” and the “Bacteria G − b … 48 hours-culture” value is “G − b, + (1-9 bacteria per field of vision under oil-immersion lens)”. Also, in assay [1] (setting [3]), the “pH, 24 hours-culture” value is 5.4-5.8 and the “pH, 48 hours-culture” value is 5.4-5.8.

In the case of `OC[C@H]1O[C@@H](O[C@H]2[C@H](O)[C@@H](O)C(O)O[C@@H]2CO)[C@H](O)[C@@H](O)[C@H]1O` (stereo partly drawn) [Lactose, lactose], in the assay with Gram-positive cocci (setting [2]), the “Bacteria G + c … 24 hours-culture” value is “G + c, +++ (About 100 bacteria or more per field vision under oil-immersion lens, even uncountable)” and the “Bacteria G + c … 48 hours-culture” value is reported as “G + c, + (1-9 bacteria per field of vision under oil-immersion lens)”. In the assay with Gram-positive bacilli (setting [2]), the “Bacteria G + b … 24 hours-culture” value is given as “G + b, ++ (About 10-99 bacteria per field of vision under oil-immersion lens)” and the “Bacteria G + b … 48 hours-culture” value is “G + b, ++ (About 10-99 bacteria per field of vision under oil-immersion lens)”. Moreover, in the assay with Gram-negative cocci (setting [2]), the “Bacteria G − c … 24 hours-culture” value is “G − c, − (No or less than one bacterium per field of version under oil-immersion lens)” and the “Bacteria G − c … 48 hours-culture” value was “G − c, − (No or less than one bacterium per field of version under oil-immersion lens)”. Besides, in the assay on Gram-negative bacilli (setting [2]), the “Bacteria G − b … 24 hours-culture” value was “G − b, + (1-9 bacteria per field of vision under oil-immersion lens)” and the “Bacteria G − b … 48 hours-culture” value was “G − b, + (1-9 bacteria per field of vision under oil-immersion lens)”. Also, in assay [1] (setting [2]), the “pH, 24 hours-culture” value worked out at 5.8 and the “pH, 48 hours-culture” value is listed as 5.1-5.4.

As for `OC[C@H]1O[C@H](O[C@H]2O[C@H](CO)[C@@H](O)[C@H](O)[C@H]2O)[C@H](O)[C@@H](O)[C@@H]1O` [Mycose, mycose], in the assay on Gram-positive cocci (setting [2]), the “Bacteria G + c … 24 hours-culture” value is listed as “G + c, + (1-9 bacteria per field of vision under oil-immersion lens)” and the “Bacteria G + c … 48 hours-culture” value was “G + c, + (1-9 bacteria per field of vision under oil-immersion lens)”. Moreover, in the assay with Gram-positive bacilli (setting [2]), the “Bacteria G + b … 24 hours-culture” value is “G + b, ++ (About 10-99 bacteria per field of vision under oil-immersion lens)” and the “Bacteria G + b … 48 hours-culture” value is “G + b, +++ (About 100 bacteria or more per field vision under oil-immersion lens, even uncountable)”. In addition, in the assay with Gram-negative cocci (setting [2]), the “Bacteria G − c … 24 hours-culture” value is recorded as “G − c, − (No or less than one bacterium per field of version under oil-immersion lens)” and the “Bacteria G − c … 48 hours-culture” value is “G − c, − (No or less than one bacterium per field of version under oil-immersion lens)”. Further, in the assay with Gram-negative bacilli (setting [2]), the “Bacteria G − b … 24 hours-culture” value is recorded as “G − b, + (1-9 bacteria per field of vision under oil-immersion lens)” and the “Bacteria G − b … 48 hours-culture” value is given as “G − b, ++ (About 10-99 bacteria per field of vision under oil-immersion lens)”. In assay [1] (setting [2]), the “pH, 24 hours-culture” value is 4.8 and the “pH, 48 hours-culture” value was 4.6-4.8.

Regarding `OC[C@H]1O[C@H](OC[C@H]2O[C@H](O[C@]3(CO)O[C@H](CO)[C@@H](O)[C@@H]3O)[C@H](O)[C@@H](O)[C@@H]2O)[C@H](O)[C@@H](O)[C@H]1O` [Melitose, melitose], in the assay with Gram-positive cocci (setting [2]), the “Bacteria G + c … 24 hours-culture” value was “G + c, + (1-9 bacteria per field of vision under oil-immersion lens)” and the “Bacteria G + c … 48 hours-culture” value is listed as “G + c, + (1-9 bacteria per field of vision under oil-immersion lens)”. Further, in the assay with Gram-positive bacilli (setting [2]), the “Bacteria G + b … 24 hours-culture” value is reported as “G + b, ++ (About 10-99 bacteria per field of vision under oil-immersion lens)” and the “Bacteria G + b … 48 hours-culture” value is given as “G + b, +++ (About 100 bacteria or more per field vision under oil-immersion lens, even uncountable)”. Further, in the assay on Gram-negative cocci (setting [2]), the “Bacteria G − c … 24 hours-culture” value is given as “G − c, + (1-9 bacteria per field of vision under oil-immersion lens)” and the “Bacteria G − c … 48 hours-culture” value is reported as “G − c, − (No or less than one bacterium per field of version under oil-immersion lens)”. In the assay on Gram-negative bacilli (setting [2]), the “Bacteria G − b … 24 hours-culture” value is given as “G − b, + (1-9 bacteria per field of vision under oil-immersion lens)” and the “Bacteria G − b … 48 hours-culture” value is listed as “G − b, ++ (About 10-99 bacteria per field of vision under oil-immersion lens)”. For the same compound, in assay [1] (setting [2]), the “pH, 24 hours-culture” value was found to be 6.7 and the “pH, 48 hours-culture” value came to 5.8.
